Holding throughout (test): NCI-60 cell line screen, 48 h
Test [1] relates to 786-0 renal.
Test [2] relates to EKVX NSCLC.
Test [3] relates to HCT-15 colon.
Test [4] deals with HS 578T breast.
The test system of test [5] is KM12 colon.
The subject of test [6] is NCI-H460 lung.
Test [7] has as its system RXF 393 renal.
Test [8] relates to SK-OV-3 ovarian.
Test [9] deals with SN12C renal.
The test system of test [10] is UACC-257 melanoma.

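Compound exposure: 48 hours, 5 concentrations, 96-well plates. The concentration for 50% growth inhibition is given as GI50. TGI: concentration producing complete growth inhibition.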

On to `CNCCn1c(=O)c2cc(OC)c(OC)cc2c2ccc3cc4c(cc3c21)OCO4`, for which the GI50 in test [1] is 0.109 µM; in test [2], 0.266 µM; in [3] it was 0.175 µM; in test [4] it was 0.835 µM; in [5] it was 0.219 µM; in test [6], 0.0226 µM. Also, the GI50 in test [7] is 0.168 µM; in [8], 0.157 µM; in test [9], 0.173 µM; in test [10], 0.16 µM. The TGI was 0.537 µM in [1]; 5.01 µM in test [2]; 3.06 µM in test [3]; 8.39 µM in test [4]; 4.98 µM in [5]; 0.558 µM in test [6]. Moreover, the TGI worked out at 0.727 µM in test [7], 1.32 µM in [8], 3.97 µM in test [9] and 0.854 µM in test [10].
On to `CCOC(=O)/C=C/C1=C(c2cccs2)c2ccccc2CC1`, for which the GI50 in test [1] was 35.5 µM; in test [2], 27.8 µM; in test [3], 16.5 µM; in test [4] it was 28.5 µM; in test [5] it was 25.6 µM; in [6] it was 31.1 µM. The GI50 in test [7] is 19.5 µM; in [8], 31.6 µM; in test [9], 28.3 µM; in test [10], 21.2 µM. For the same molecule, the TGI in test [1] was over 100 µM; in test [2] it was 86.7 µM; in test [3] it was 34 µM; in test [4], 99.1 µM; in test [5], 90 µM; in test [6], over 100 µM. For the same molecule, the TGI is 41.3 µM in test [7], over 100 µM in [8], over 100 µM in test [9] and 53.7 µM in [10].
For the molecule `Cc1ccc2nc(-c3ccc(N(C)C)c(Br)c3)cn2c1`, the GI50 is over 100 µM in test [1]; over 100 µM in test [2]; 4.19 µM in test [3]; 25.3 µM in [4]; 54.1 µM in test [5]; 4.18 µM in test [6]. Besides, the GI50 in test [7], in test [8], in test [9] and in [10] was over 100 µM each time. Further, the TGI in [1], in [2], in test [3], in [4], in test [5] and in [6] was over 100 µM throughout. For the same molecule, the TGI in [7], in [8], in [9] and in test [10] was over 100 µM throughout.
Regarding `COc1ccc2c(c1)/C(=C\c1c(Cl)[nH]c3ccc(OC)cc13)C(=O)N2`, the GI50 is 43.7 µM in [1]; 84.7 µM in test [2]; over 100 µM in test [3]; 29.9 µM in test [4]; 17.5 µM in test [5]; 50.7 µM in test [6]. Besides, the figures for the GI50 in test [7], in [8] and in [10] were over 100 µM, 41.9 µM and 37.3 µM, respectively. For the same molecule, the TGI is over 100 µM in test [1]; over 100 µM in test [2]; over 100 µM in test [3]; 81.2 µM in test [4]; 34.9 µM in test [5]; over 100 µM in test [6]. Besides, the TGI in test [7], in test [8] and in test [10] was over 100 µM throughout.
Turning to `CCN(CC)C(=S)SC`, the TGI in test [1], in test [2], in test [3], in test [4], in test [6] and in [7] was over 100 µM each time. In addition, the TGI in test [8], in test [9] and in [10] was over 100 µM each time.
On to `Cc1nc2sccn2c1-c1csc(Nc2cccc(Cl)c2C)n1`, for which the GI50 in [1] is 9.62 µM; in [3], 3.62 µM; in test [4], 4.56 µM; in test [5], 3.79 µM; in test [6] it was 3.58 µM; in [7] it was 4.19 µM. Moreover, the GI50 was 21.2 µM in test [8], 6.06 µM in [9] and 2.52 µM in [10]. Moreover, the TGI was 79.7 µM in test [1]; 31.9 µM in [3]; 51.2 µM in test [4]; 21.8 µM in [5]; 20.3 µM in test [6]; 37.6 µM in test [7]. Besides, the TGI in test [8] is over 100 µM; in [9], over 100 µM; in test [10] it was 12.5 µM.
Regarding `CCn1c2ccc(O)cc2c2c(C)c3c[n+](C)ccc3c(C)c21`, the GI50 is 0.52 µM in [1]; 10.9 µM in [2]; 29.4 µM in [3]; 0.509 µM in test [4]; 2 µM in test [5]; 0.752 µM in test [6]. Moreover, the GI50 in test [7] is 5.58 µM; in [8] it was 7.41 µM; in [9] it was 0.152 µM. The TGI was over 100 µM in [1]; over 100 µM in test [2]; over 100 µM in [3]; 4.98 µM in test [4]; 23.7 µM in test [5]; 11 µM in [6]. The TGI in test [7] was over 100 µM; in [8] it was 83.8 µM; in [9], 3.03 µM.

These data come from PubChem BioAssay (NCI).
